Values joined by “and” are separate entries in the source; they are usually repeats but may differ in a detail not shown here. Equal entries are not always repeated.
Test system: 883617-216-R-J1-PDC complex spheroid viability
Experiment: Anticancer human tumor 883617-216-R-J1-PDC patient-derived bladder carcinoma cell line growth inhibition [POLQ]
Conditions: for viability, T/C: stronger effect = lower value; for IC50: curve of compound
Description: Multicellular complex tumor spheroid response to Polymerase (POL) inhibitors (novobiocin, ART-558, RP6685) in combination with a variety of drugs and investigational agents in selected tumor cell lines
The POL inhibitors (novobiocin, ART-558, and RP6685) were evaluated both individually and in combination with standard of care and investigational anticancer small molecules within a complex spheroid model of solid tumors. . Complex spheroids include a stromal component modeled by human endothelial cells (HUVEC) and fibroblasts modeled by human mesenchymal stem cells (MSCs). The concentration ranges selected for each drug and investigational agent were based upon clinically achievable concentrations if the clinical Cmax of the agent was known.
Compounds. The drugs and investigational agents: novobiocin (NSC847541), ART-558 (NSC835418), RP-6685 (NSC848927), peposertib (NSC802822), ceralasertib (NSC780249), elimusertib (NSC800525), camonsertib (NSC841442), AZD-1390 (NSC803789), olaparib (NSC753686), talazoparib (NSC767125), rucaparib (NSC756644), sotorasib (NSC818433), MRTX-1133 (NSC836407), SN-38 (NSC673596), topotecan (NSC609699), epotoside (NSC141540), doxorubicin (NSC123127), gemcitabine (NSC613327), 5-fluorouracil (NSC19893), paclitaxel (NSC125973), vemurafenib (NSC761431), MSA-2 (NSC828583), SN-011 (NSC837082), adavosertib (NSC754352), prexasertib (NSC758257), carboplatin (NSC241240) and oxaliplatin (NSC266046), were obtained from the National Cancer Institute (NCI) Developmental Therapeutics Program Chemical Repository (21). The FDA-approved anticancer drug set is available from the Developmental Therapeutics Program at https://dtp.cancer.gov/organization/dscb/obtaining/. […] The stock solutions were prepared in dimethyl sulfoxide (DMSO, Sigma-Aldrich, St. Louis, MO, cat. D2650), except for the platinum compounds which were prepared in saline (Quality Biological, Gaithersburg, MD, cat. 114-055-101), at 800-fold the tested concentration and stored at -70 degrees C prior to their use. All drugs and investigational agents were tested over a range starting from a high concentration at or near the clinical Cmax and decreasing in half-log increments. If the clinical Cmax for an agent had not been determined, the highest concentration tested was 10 microM, except for SN-38, which was tested at a high concentration of 1 microM.
Cell Culture. All cells were maintained in an incubator at 37 degrees C and 5% CO2 with 95% humidity. The PDC lines were cultured according to standard operating procedures established by the NCI PDMR (https://pdmr.cancer.gov). Table 3 of the manuscript, lists the cell lines along with the number of the three cell types plated to form the mct-spheroids and media for tumor cell growth. After thawing, all PDC lines, except 997537-175-T-J1-PDC and 415267-285-R-J2-PDC, were cultured in Matrigel-coated flasks prepared with a working solution of 1X Ham's F-12 nutrient mix, without supplementation (Thermo Fisher Scientific, cat. 11765054), 100 U/mL penicillin-streptomycin (Thermo Fisher Scientific, cat. 15140122), and 2.5% Matrigel (Corning Inc., Corning, NY, cat. 354248) for the first three passages. The two PDC lines 997537-175-T-J1-PDC and 415267-285-R-J2-PDC were cultured on uncoated flasks. The 857933-349-R-J2-PDC line was cultured in 6C/Colon 1B media containing advanced DMEM/F-12 (Thermo Fisher Scientific, cat. 12634028), 10 mM HEPES (Thermo Fisher Scientific, cat. 15630080), 1X GlutaMAX supplement (Thermo Fisher Scientific, cat. 35050061), 0.1 mg/mL primocin (InvivoGen, San Diego, CA, cat. ant-pm-2), 10% defined fetal bovine serum, heat inactivated (HyClone Laboratories Inc., Logan, UT, cat. SH30070.03HI), 50% L-WRN conditioned media (ATCC, cat. CRL-3276), 1.25 mM N-Acetyl-L-cysteine (Sigma-Aldrich, cat. A9165), 10 mM nicotinamide (Sigma-Aldrich, cat. N0636), 1X B-27 supplement (Thermo Fisher Scientific, cat. 17504044), 1X N-2 supplement (Thermo Fisher Scientific, cat. […]
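Also: spheroids exposed to compounds for seven days before readout.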
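For viability, T/C in this document: 100% = DMSO vehicle control viability.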

`C#Cc1c(F)ccc2cc(O)cc(-c3ncc4c(N5CC6CCC(C5)N6)nc(OCC56CCCN5CC(F)C6)nc4c3F)c12` (configuration not stated) was tested. Which viability, T/C (compound 0.0316 µM) did it give?
The viability, T/C was 98% and 83% and 93.6%.

And the viability, T/C (compound 0.1 µM)?
The viability, T/C was 95% and 94% and 84.2%.

And the viability, T/C (compound 0.316 µM)?
The viability, T/C was 101% and 82% and 104%.

What about the viability, T/C (compound 1 µM) of the same compound?
The viability, T/C was 95.3% and 81.1% and 88.5%.

And the viability, T/C (compound 3.16 µM)?
The viability, T/C was 94.2% and 83% and 85.1%.

What about the viability, T/C (compound 10 µM) of the same compound?
Its viability, T/C is 72.5% and 74.3% and 83.1%.

And the IC50?
Its IC50 is > 10000 nM.

Which viability, T/C (compound 0.0316 µM) does the source give for `C=CC(=O)N1CCN(c2nc(=O)n(-c3c(C)ccnc3C(C)C)c3nc(-c4c(O)cccc4F)c(F)cc23)C(C)C1` (configuration not stated) here?
Its viability, T/C is 74.3% and 68% and 64%.

And the viability, T/C (compound 0.1 µM)?
The viability, T/C was 64.8% and 60.8% and 63.8%.

And the viability, T/C (compound 0.316 µM)?
Its viability, T/C is 75.8% and 70.3% and 81.9%.

And the viability, T/C (compound 1 µM)?
The viability, T/C was 72.6% and 83.2% and 78.3%.

What about the viability, T/C (compound 3.16 µM) of the same compound?
The viability, T/C was 91.3% and 76.7% and 85%.

And the viability, T/C (compound 10 µM)?
The viability, T/C was 81.6% and 83.3% and 76.6%.

What about the IC50 of the same compound?
Its IC50 is > 10000 nM.

How did the viability, T/C (compound 0.00316 µM) turn out when `C=CCn1c(=O)c2cnc(Nc3ccc(N4CCN(C)CC4)cc3)nc2n1-c1cccc(C(C)(C)O)n1` was run?
Its viability, T/C is 97.5% and 107% and 98.8%.

And the viability, T/C (compound 0.01 µM)?
The viability, T/C was 100% and 96.8% and 90.3%.

And the viability, T/C (compound 0.0316 µM)?
The viability, T/C was 100% and 108% and 112%.

And the viability, T/C (compound 0.1 µM)?
The viability, T/C was 107% and 87.8% and 93.7%.

What about the viability, T/C (compound 0.316 µM) of the same compound?
Its viability, T/C is 85.4% and 72.3% and 92.5%.

What about the viability, T/C (compound 1 µM) of the same compound?
Its viability, T/C is 48.6% and 50.2% and 50.6%.

What about the IC50 of the same compound?
The IC50 was 960 nM and > 1000 nM.

What does the source list for `CC(=O)O[C@H]1C(=O)[C@@]2(C)[C@H]([C@H](OC(=O)c3ccccc3)[C@]3(O)C[C@H](OC(=O)[C@H](O)[C@@H](NC(=O)c4ccccc4)c4ccccc4)C(C)=C1C3(C)C)[C@]1(OC(C)=O)CO[C@@H]1C[C@@H]2O`?
viability, T/C (compound 0.00949 µM): 44.9% and 57% and 43.1%; viability, T/C (compound 0.03 µM): 32.5% and 35.8% and 26.7%; viability, T/C (compound 0.0949 µM): 22.9% and 26.7% and 15.8%; viability, T/C (compound 0.3 µM): 30.6% and 21.1% and 24.6%; viability, T/C (compound 0.949 µM): 28.4% and 23.5% and 25.1%; viability, T/C (compound 3 µM): 26.5% and 19.3% (2×); IC50: < 9.49 nM and 13.9 nM

With `CC(C)n1c(=O)n(C)c2cnc3cc(F)c(-c4ccc(OCCCN5CCCCC5)nc4)cc3c21` as the compound, how does the viability, T/C (compound 0.0316 µM) read?
The viability, T/C was 96% and 105% and 102%.

What about the viability, T/C (compound 0.1 µM) of the same compound?
Its viability, T/C is 90.3% and 101% and 98.8%.

And the viability, T/C (compound 0.316 µM)?
Its viability, T/C is 112% and 103% and 111%.

What about the viability, T/C (compound 1 µM) of the same compound?
The viability, T/C was 106% and 108% and 94.5%.

And the viability, T/C (compound 3.16 µM)?
The viability, T/C was 87.5% and 84% and 102%.

What about the viability, T/C (compound 10 µM) of the same compound?
The viability, T/C was 52.9% and 72% and 69.1%.

And the IC50?
Its IC50 is > 10000 nM.

How did the viability, T/C (compound 0.0316 µM) turn out when `CC1COCCN1c1cc(-c2ccnn2C)c2ccnc(-c3ccn[nH]3)c2n1` (configuration not stated) was run?
The viability, T/C was 83.5% and 90% and 77.5%.

And the viability, T/C (compound 0.1 µM)?
The viability, T/C was 51.3% and 58.9% and 59.6%.

What about the viability, T/C (compound 0.316 µM) of the same compound?
Its viability, T/C is 43.9% and 45.8% and 56.5%.

And the viability, T/C (compound 1 µM)?
The viability, T/C was 36.8% and 37.4% and 36.7%.

And the viability, T/C (compound 3.16 µM)?
The viability, T/C was 32.3% and 29.7% and 40.9%.

What about the viability, T/C (compound 10 µM) of the same compound?
The viability, T/C was 27.4% and 31.1% and 28.9%.

And the IC50?
Its IC50 is 151 nM and 210 nM and 393 nM.

From PubChem BioAssay AID1963833 (Molecular Pharmacology Branch, DTP, NCI, 2024)
